# Entries after “also recorded” stand apart in the source; their conditions may differ.
# Columns and labels:
# SHIP1 = experiment: Malachite green phosphatase release assay, SHIP1; settings: for SHIP1 Inhibition: Malachite green assay at 1mM
# Procedure: Compounds were dissolved in 100% DMSO and then diluted to indicate final concentrations of performed assays (5% DMSO final concentration).
# For this purpose, OPM2 cells were lysed in IP-lysis buffer (20 mM Tris, 150 mM NaCl, 1 mM EDTA, 1 mM EGTA, 1% Triton X100, 1 mM PMSF, Halt protease inhibitor), and SHIP1 or OCRL were immuno-precipitated using mouse IgG antibodies from Santa Cruz Biotechnology (Santa Cruz, Calif.). Beads were washed four times with IP lysis buffer and once with TBS/MgCl2 (10 mM) and resuspended in TBS/MgCl2. SHIP inhibitors (200 μM) were added to the beads for 5 minutes, after which immunoprecipitated SHIP1 was incubated in the presence of 100 μM PtdIns(3,4,5)P3 (Echelon Biosciences, Salt Lake City, Utah), whereas immunoprecipitated OCRL was incubated in the presence of 100 μM PtdIns(4,5)P2 for 30 minutes. Malachite green solution was added according to manufacturer's instructions, and the plate was read after 20 minutes.
# HCT116 = experiment: MTT cell viability assay, HCT116; format: cell-based; settings: for cell viability (MTT): HCT116
# CACO-2 = experiment: MTT cell viability assay, CACO-2; format: cell-based; settings: for cell viability (MTT): CACO-2
# [1] = test system: PKB, pS6 and ERK phosphorylation in HCT116 cells; experiment: Western blotting of signaling, HCT116 cells; format: cell-based, human; settings: HCT116, serum starved; K149 10 μM 1 h, LY2940002 20 μM 1 h, EGF 10 ng/mL 15 minutes
# Procedure: (§1) Western blotting. HCT116 and CACO-2 cells were serum starved by incubating for 2 h, after which cells were stimulated for 15 minutes with EGF (10 ng/mL), or stimulated for 1 h with LY2940002 (20 μM) or SHIP2 inhibitor K149 (10 μM). Subsequently, cells were washed with PBS and lysed on ice in 300 μL 2× concentrated Laemmli buffer (100 mM Tris-HCl (pH 6.8), 200 mM dithiothreitol, 4% SDS, 0.1% bromophenol blue, 20% glycerol, and 2% DTT) and boiled for 5 minutes at 95° C. Cell extracts were resolved by SDS-PAGE and transferred to polyvinylidene difluoride membranes (Merck chemicals BV, Amsterdam, the Netherlands). Membranes were blocked in 50% odyssey blocking buffer (LI-COR Biosciences, Lincoln, Nebr.) in PBS/0.05% Tween-20 and incubated overnight at 4° C. with primary antibody. After washing in PBS-T, membranes were incubated with IRDye® antibodies (LI-COR Biosciences, Lincoln, Nebr.) for 1 h. Detection was performed using Odyssey reader and analyzed using manufacturers software.
# [2] = test system: PKB, pS6 and ERK phosphorylation in CACO-2 cells; experiment: Western blotting of signaling, CACO-2 cells; format: cell-based, human; settings: CACO-2, serum starved; K149 10 μM 1 h, LY2940002 20 μM 1 h, EGF 10 ng/mL 15 minutes
# Procedure: as §1
# [3] = test system: MDSC, iTreg cells, nTreg cells, neutrophils; experiment: Immune cell numbers and frequencies by flow cytometry in dosed mice; format: in vivo; settings: 10 mg/kg in 5% DMSO for 6 days
# Procedure: Mice were dosed for 6 days with […]
# K562 = experiment: Cell growth, K562 leukemia cell line; settings: K562, increasing concentrations, compared with K103
# Procedure: (§2) Cells were treated in triplicate or more with increasing concentrations of compounds.
# (§3) All cell culture media were supplemented with 100 U/mL penicillin, 100 mg/mL streptomycin (Life technologies, Bleiswijk, NL) and 10% Fecal Calf Serum (FCS, Sigma-Aldrich, St. Louis, USA). Cells were maintained at 37° C. in a 5% CO2 humidified setting.
# MCF-7 = experiment: Cell growth, MCF-7 breast cancer cell line; settings: MCF-7, increasing concentrations, compared with K103
# Procedure: as §2, §3
# OPM2 = experiment: Cell growth, OPM2 multiple myeloma cell line; settings: OPM2, increasing concentrations, compared with K103
# Procedure: as §2, §3
# MDA-MB-231 = experiment: Cell growth, MDA-MB-231 breast cancer cell line; settings: MDA-MB-231, increasing concentrations, compared with K103
# Procedure: as §2, §3
# [4] = High fat diet (diet-induced obese) mice: weight, bone health, toxicity; settings: HFD mice, 2× week, i.p., 10 mg/kg, two weeks
# [5] = test system: HCT116, RKO, LS-174T, CACO-2 and COLO 320; experiment: Cell viability in colorectal cancer cell lines with and without PI3K mutations; settings: 3 cell lines with PIK3CA mutation, 2 without
# Procedure: Cell lines. […] Colorectal cancer cell lines HCT116 CACO-2, COLO 320, and RKO were cultured in Dulbecco's Modified Eagles Medium (DMEM, Lonza, Basel, Switzerland). […] All cell culture media were supplemented with 100 U/mL penicillin, 100 mg/mL streptomycin (Life technologies, Bleiswijk, NL) and 10% Fecal Calf Serum (FCS, Sigma-Aldrich, St. Louis, USA). Cells were maintained at 37° C. in a 5% CO2 humidified setting.
# Cell viability assay. Cell viability was assessed using MTT assays. Cells were incubated with different concentrations of SHIP2 inhibitors, and/or chemotherapeutic agent 5-FU. 24 h, 48 h, 72 h, and 96 h after incubation cells were incubated with 5 mM MTT (3-(4,5-Dimethylthiazol-2-yl)-2,5-diphenyltetrazolium bromide) for 3 h and colorimetric changes were measured using a microplate reader (Model 680XR Bio-Rad) at 490 and 595 nm.
# SHIP2 = experiment: Malachite green phosphatase release assay, SHIP2; format: biochemical, human; settings: for SHIP2 Inhibition: Malachite green assay at 1mM
# Description: Detection of phosphatase enzymatic activity.
# breast cancer cells = settings: cited from earlier work
compound,measurement,setting,value
"Cc1c(CCN)c2ccccc2n1Cc1ccccc1.Cl [Compound K123, 2-[1-benzyl-2-methyl-5-1H-3-yl] ethanaminium chloride]",melting point,,158 to 161 °C
same,SHIP1 Inhibition,SHIP1,15%
"CSc1ccc2c(c1)c(CCN)c(C)n2Cc1ccc(Cl)cc1Cl.Cl [Compound K149, 2-[1-(2,4-dichlorobenzyl)-2-methyl-5-(methylmercapto)-1H-3-yl] ethanaminium chloride]",cell viability (MTT),HCT116,dose-dependent reduction in cell viability; also recorded: more sensitive to the K149 inhibitor; also recorded: induced cell death at lower concentrations in HCT116 cells than CACO-2 cells; also recorded: dose-dependent cell death
same,5-FU-induced cell death with SHIP2 inhibitor co-treatment,"HCT116; HCT116, K149 2 uM with increasing concentrations of 5-FU",sensitizes CRC cells to the 5-FU treatment; also recorded: enhanced
same,cell viability (MTT),CACO-2,dose-dependent reduction in cell viability; also recorded: more sensitive to the K149 inhibitor; also recorded: dose-dependent cell death
same,5-FU-induced cell death with SHIP2 inhibitor co-treatment,"CACO-2; CACO-2, K149 2 uM with increasing concentrations of 5-FU",sensitizes CRC cells to the 5-FU treatment; also recorded: enhanced
same,ERK phosphorylation,[1],not affected by either inhibitor; also recorded: affected by neither inhibitor
same,PKB phosphorylation,[1],diminished; also recorded: decreased
same,pS6 phosphorylation,[1],drastically increased
same,ERK phosphorylation,[2],not affected by either inhibitor; also recorded: affected by neither inhibitor
same,PKB phosphorylation,[2],diminished; also recorded: decreased
same,pS6 phosphorylation,[2],drastically increased
same,MDSC counts,[3],significant increases
same,iTreg cell counts,[3],significant increases
same,nTreg cell counts,[3],significant increases
same,neutrophil counts,[3],significant increases
same,control of cancer cell growth,K562,more effective at controlling cancer cell growth
same,control of cancer cell growth,MCF-7,more effective at controlling cancer cell growth
same,control of cancer cell growth,OPM2,more effective at controlling cancer cell growth
same,control of cancer cell growth,MDA-MB-231,more effective at controlling cancer cell growth
same,effects compared to K103,"SHIP1; FIG. 1A-C, FIG. 1C is recombinant human tSHIP1",superior effects compared to K103
same,SHIP1 Inhibition,SHIP1,81%
same,% body weight,[4],significant reductions
same,total weight,[4],significant reductions; also recorded: promotes weight loss
same,toxicity,[4],No toxicity was observed
same,bone mineral content (BMC),[4]; DEXA,no significant reduction or increase
same,bone mineral density (BMD),[4]; DEXA,no significant reduction or increase
same,sensitivity by PI3K (PIK3CA) mutational status,[5],no difference in sensitivity to SHIP2 inhibition based on PIK3CA mutational status; also recorded: No relationship between SHIP2 inhibition and PI3K mutational status exists
Cc1c(CCN)c2ccccc2n1Cc1ccccc1Cl.Cl,melting point,,161 to 169 °C
"CSc1ccc2c(c1)c(CCN)c(C)n2Cc1ccc(Cl)cc1.Cl [Compound K103, reference compound]",SHIP2 activity,"SHIP2; recombinant SHIP2, 500 uM, vs vehicle control (DMSO), FIG. 5",inhibition of the SHIP2 activity
same,cell viability (MTT),HCT116; hydrochloride,dose-dependent reduction in cell viability; also recorded: induced cell death at lower concentrations in HCT116 cells than CACO-2 cells; also recorded: dose-dependent cell death
same,cell viability (MTT),CACO-2; hydrochloride,dose-dependent reduction in cell viability; also recorded: dose-dependent cell death
same,killing breast cancer cells,breast cancer cells,effective in killing breast cancer cells
"EGF: Epidermal Growth Factor, used to stimulate cellular signaling [reference compound]",ERK phosphorylation,[1],increased
same,PKB phosphorylation,[1],increased
same,pS6 phosphorylation,[1],increased
same,ERK phosphorylation,[2],increased
same,PKB phosphorylation,[2],increased
same,pS6 phosphorylation,[2],increased
"CSc1ccc2c(c1)c(CCN)c(C)n2Cc1ccccc1.Cl [Compound K125, 2-[1-benzyl-2-methyl-5-(methylmercapto)-1H-3-yl] ethanaminium chloride]",SHIP2 Inhibition,SHIP2,80%
same,melting point,,178 to 189 °C
same,SHIP1 Inhibition,SHIP1,64%
"Cc1c(CCN)c2cc(Br)ccc2n1Cc1ccccc1Cl.Cl [Compound K148, 2-[1-(2-chlorobenzyl)-2-methyl-5-(bromo)-1H-3-yl] ethanaminium chloride]",SHIP2 Inhibition,SHIP2,70%
same,SHIP1 Inhibition,SHIP1,77%
"Cc1c(CCN)c2ccccc2n1Cc1ccccc1Cl.Cl [Compound K124, 2-[1-(2-chlorobenzyl)-2-methyl-5-1H-3-yl] ethanaminium chloride]",SHIP2 Inhibition,SHIP2,70%
same,SHIP1 Inhibition,SHIP1,62%
"CSc1ccc2c(c1)c(CCN)c(C)n2Cc1ccc(Cl)cc1.Cl [Compound K160, 2-[1-(4-chlorobenzyl)-2-methyl-5-(methylmercapto)-1H-3-yl] ethanaminium chloride]",SHIP2 Inhibition,SHIP2,61%
same,melting point,,198 to 209 °C
same,SHIP1 Inhibition,SHIP1,78%

# Reference: patent publication US10736877B2, “Tryptamine-based ship inhibitors for the treatment of cancer” (THE RESEARCH FOUNDATION FOR THE STATE UNIVERSITY OF NEW YORK, priority 2015, dated 2020)
